Type in all cases: in vivo
For assay [1], the system named is Musca domestica. The experiment in a line: Musca domestica test. The note with it: application rate 100 ppm, adult houseflies, after 2 days.
Assay [2] has as its system Phaedon cochleariae. Briefly: Phaedon cochleariae spray test (PHAECO).
Assay [3] has as its system Spodoptera frugiperda. Briefly: Spodoptera frugiperda spray test (SPODFR).
Assay [4] concerns Anopheles gambiae strain RSPH (homozygot kdr). Briefly: Anopheles test (ANPHGB surface treatment). The note with it: application rate 100 mg/m^2, glazed tile, exposure 30 minutes, 24 hours after contact, read-out: efficacy (mortality). As to the method:
Anopheles Test (ANPHGB Surface Treatment)
(§1) Solvent: acetone+2000 ppm rapeseed oil methyl ester (RME)
To produce a suitable active compound formulation, the active compound is dissolved in the solvent (2 mg/ml). The active compound formulation is pipetted onto a glazed tile and, after it has dried off, adult mosquitoes of the species Anopheles gambiae strain RSPH (homozygot kdr) are placed onto the treated tile. The exposure time is 30 minutes.
(§2) 24 hours after contact with the treated surface, mortality in % is determined. 100% means that all mosquitoes have been killed; 0% means that none of the mosquitoes have been killed.

Assay [5] concerns Anopheles funestus strain FUMOZ-R. The experiment in a line: Anopheles test (ANPHFU surface treatment). The note with it: application rate 100 mg/m^2, glazed tile, exposure 30 minutes, 24 hours after contact, read-out: efficacy (mortality). As to the method: Anopheles Test (ANPHFU Surface Treatment)
as §1
To produce a suitable active compound formulation, the active compound is dissolved in the solvent (2 mg/ml). The active compound formulation is pipetted onto a glazed tile and, after it has dried off, adult mosquitoes of the species Anopheles funestus strain FUMOZ-R (Hunt et al., Med Vet Entomol. 2005 September; 19(3):271-5) are placed onto the treated tile. The exposure time is 30 minutes.
as §2

In assay [6] the test system is Aedes aegypti strain MONHEIM. Briefly: Aedes test (AEDSAE surface treatment). As to conditions: application rate 100 mg/m^2, glazed tile, exposure 30 minutes, 24 hours after contact, read-out: efficacy (mortality). As to the method: Aedes Test (AEDSAE Surface Treatment)
as §1
To produce a suitable active compound formulation, the active compound is dissolved in the solvent (2 mg/ml). The active compound formulation is pipetted onto a glazed tile and, after it has dried off, adult mosquitoes of the species Aedes aegypti strain MONHEIM are placed onto the treated tile. The exposure time is 30 minutes.
as §2

The test system of assay [7] is Myzus persicae. The experiment in a line: Myzus persicae oral test. As to conditions: application rate 4 ppm, after 5 days. As to the method: To produce a suitable active compound preparation, 1 part by weight of active compound is dissolved with the specified amounts by weight of solvent and made up to the desired concentration with water.
50 ul of the active compound preparation are transferred to microtiter plates and made up to a final volume of 200 μl with 150 μl of IPL41 insect medium (33%+15% sugar). Then the plates are sealed with parafilm through which a mixed population of the green peach aphid (Myzus persicae), which is located in a second microtiter plate, can pierce and absorb the solution.
After 5 days, the efficacy in % is determined. 100% means that all the aphids have been killed; 0% means that no aphids have been killed.

The mark [8] stands for this setting: application rate 100 g/ha, spray, after 7 days.

As usually defined, the mortality is the percentage killed. As for `O=C(NC1CC1)c1cc(-c2cnn(-c3c(Cl)cc(C(F)(C(F)(F)F)C(F)(F)F)cc3Cl)c2)sc1Br` [I-T1-1], the “efficacy (rate of extermination)” value in assay [1] is recorded as 100%. The Emax at 100 g/ha in assay [2] (Phaedon cochleariae, 168 h, PHAECO, 100 g ai/ha, 7 dat, read-out: % efficacy dat) amounted to 100%; in assay [3] (Spodoptera frugiperda, 168 h, SPODFR, 100 g ai/ha, 7 dat, read-out: % efficacy dat), 100%. For the same compound, the pest or weed control at 100 g/ha in assay [2] (Phaedon cochleariae, 168 h, application rate 100 g/ha, spray, after 7 days, read-out: efficacy) was 100%; in assay [3] (Spodoptera frugiperda, 168 h, application rate 100 g/ha, spray, after 7 days, read-out: efficacy), 100%. The mortality at 100 mg/m2 in assay [4], in assay [5] and in assay [6] was 80 to 100% each time.

Consider `Cc1sc(-c2cnn(-c3c(Cl)cc(C(F)(C(F)(F)F)C(F)(F)F)cc3Cl)c2)cc1C(=O)NC1CC1` [I-T1-11], for which the “efficacy (rate of extermination)” value in assay [1] was 100%. In addition, the efficacy is 90% in assay [7], 100% in assay [2] (setting [8]) and 100% in assay [3] (setting [8]).

For the origin of these results see patent US11825838B2, “Tricyclic carboxamides for controlling arthropods” (Bayer CropScience Aktiengesellschaft, priority 2017, dated 2023).
